The values below come from ChEMBL document CHEMBL5126521, “Analgesic Opioid Ligand Discovery Based on Nonmorphinan Scaffolds Derived from Natural Sources” (J Med Chem, 2022).

The subject of series [1] is Mus musculus. Nature of the series: Antinociceptive activity in icv dosed mouse assessed as tail flick latency. Format: functional.
Series [2] deals with Mus musculus. Nature of the series: Antinociceptive activity in sc dosed mouse assessed as tail flick latency. Format: functional. (Thermal pain tests record how soon the animal reacts.)
Series [3] concerns the target T1, Mu-type opioid receptor (Mus musculus, UniProt P42866). Briefly: Antagonist activity at mouse vas deferns MOP. It is filed as functional.
The target in series [4] is T2, Mu-type opioid receptor (Cavia porcellus, UniProt P97266). Briefly: Antagonist activity at guinea pig ileum MOP. It is filed as functional, tissue-based.
T2 sequence (P97266 whole entry): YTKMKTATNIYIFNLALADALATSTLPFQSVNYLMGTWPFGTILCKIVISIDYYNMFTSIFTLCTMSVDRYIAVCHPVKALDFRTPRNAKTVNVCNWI
For series [5], the system named is Mus musculus. Nature of the series: Antinociceptive activity in mouse administered IV. It is filed as functional.
The target of series [6] is T1, Mu-type opioid receptor. Briefly: Antagonist activity at mouse brain homogenate MOP. It is filed as functional, tissue-based.
The species named for series [7] is Mus musculus. Nature of the series: Antinociceptive activity in mouse by tail pressure test. It is filed as functional. The conditions noted are these: Mus musculus; read-out: ED50.
Series [8] deals with Rattus norvegicus. Briefly: Antinociceptive activity in rat administered icv. It is filed as functional.
The species entered for series [9] is Rattus norvegicus. Nature of the series: Antinociceptive activity in rat. It is filed as functional. The conditions noted are these: Rattus norvegicus; read-out: ED50.
The nature of series [10]: Toxicity in rat assessed as antinociceptive activity tolerance at 3 to10 nmol/kg measured after 5 days with 62 pmol/h icv infusion relative to control. The conditions noted are these: in vivo, icv_or_intrathecal, 120 h, at 10 nmol/kg, time 5 day.
The test system of series [11] is Mus musculus. Briefly: Antinociceptive activity in mouse administered iv by hot plate test. Format: functional.
The test system of series [12] is Mus musculus. Briefly: Antinociceptive activity in mouse administered icv. Format: functional.
In series [13] the test system is Rattus norvegicus. Nature of the series: Antinociceptive activity in rat administered IT. It is filed as functional.
Series [14] concerns the target T3, Mu-type opioid receptor (Homo sapiens, UniProt P35372). Briefly: Binding affinity to MOP (unknown origin).
Series [15] relates to Mus musculus. Briefly: Antinociceptive activity in thermal hyperalgesia mouse model administered sc. Format: functional.
In series [16] the test system is Mus musculus. Nature of the series: Antinociceptive activity in mechanical allodynia mouse model administered sc. Format: functional.
The target of series [17] is T4, Delta-type opioid receptor (Homo sapiens, UniProt P41143). Briefly: Binding affinity to DOP (unknown origin).
T4 sequence (P41143 whole entry): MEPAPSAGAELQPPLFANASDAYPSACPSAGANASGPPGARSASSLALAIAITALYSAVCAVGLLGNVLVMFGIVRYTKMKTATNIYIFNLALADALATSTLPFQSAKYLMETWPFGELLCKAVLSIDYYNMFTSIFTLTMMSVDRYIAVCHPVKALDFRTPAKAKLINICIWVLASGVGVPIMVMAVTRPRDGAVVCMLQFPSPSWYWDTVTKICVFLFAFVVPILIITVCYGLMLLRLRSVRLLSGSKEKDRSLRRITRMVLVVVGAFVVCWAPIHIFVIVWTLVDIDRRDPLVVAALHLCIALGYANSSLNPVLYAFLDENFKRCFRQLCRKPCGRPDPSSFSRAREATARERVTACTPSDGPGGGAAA
The target of series [18] is T3, Mu-type opioid receptor. Briefly: Inhibition of MOP (unknown origin).
Series [19] addresses T4, Delta-type opioid receptor. Briefly: Inhibition of DOP (unknown origin).
Series [20] has as its target Kappa-type opioid receptor (Homo sapiens, UniProt P41145). Briefly: Inhibition of KOP (unknown origin).
Series [21] deals with Kappa-type opioid receptor (Mus musculus, UniProt P33534). Briefly: Inhibition of mouse KOP.
Kappa-type opioid receptor (Mus musculus, UniProt P33534), sequence (P33534 whole entry): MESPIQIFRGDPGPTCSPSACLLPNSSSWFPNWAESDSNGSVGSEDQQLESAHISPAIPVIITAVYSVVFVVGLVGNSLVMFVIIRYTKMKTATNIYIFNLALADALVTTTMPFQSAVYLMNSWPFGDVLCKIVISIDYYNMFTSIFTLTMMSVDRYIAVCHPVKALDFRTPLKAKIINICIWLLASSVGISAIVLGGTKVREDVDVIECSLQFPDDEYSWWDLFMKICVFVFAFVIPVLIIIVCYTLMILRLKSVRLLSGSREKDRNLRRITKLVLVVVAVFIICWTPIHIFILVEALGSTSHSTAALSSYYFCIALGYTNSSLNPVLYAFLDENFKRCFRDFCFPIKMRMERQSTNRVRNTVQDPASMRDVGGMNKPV
Series [22] deals with Mus musculus. Briefly: Antinociceptive activity in po dosed mouse by hot plate assay. It is filed as functional.
Series [23] concerns Mus musculus. Nature of the series: Antinociceptive activity in sc dosed mouse by hot plate assay. It is filed as functional.
For series [24], the target named is Kappa-type opioid receptor (Cavia porcellus, UniProt P41144). Briefly: Displacement of [3H]U69593 from guinea pig brain membrane KOP incubated for 1 hr by scintillation counter analysis. It is filed as cell membranes.
Kappa-type opioid receptor (Cavia porcellus, UniProt P41144), sequence (P41144 whole entry): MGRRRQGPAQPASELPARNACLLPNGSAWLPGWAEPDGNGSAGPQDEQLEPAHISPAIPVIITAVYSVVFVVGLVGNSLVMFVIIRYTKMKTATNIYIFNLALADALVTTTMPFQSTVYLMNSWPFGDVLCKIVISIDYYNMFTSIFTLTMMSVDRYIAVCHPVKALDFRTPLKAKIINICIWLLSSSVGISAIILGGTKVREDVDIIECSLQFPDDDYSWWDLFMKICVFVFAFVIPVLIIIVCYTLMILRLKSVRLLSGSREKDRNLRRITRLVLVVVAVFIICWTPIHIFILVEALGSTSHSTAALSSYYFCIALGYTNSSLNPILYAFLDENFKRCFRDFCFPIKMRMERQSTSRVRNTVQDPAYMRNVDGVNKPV
For series [25], the system named is Mus musculus. Briefly: Antinociceptive activity in po dosed mouse by tail flick assay. Format: functional.
Series [26] deals with Delta-type opioid receptor (Mus musculus, UniProt P32300). Nature of the series: Inhibition of mouse DOP.
Delta-type opioid receptor (Mus musculus, UniProt P32300), sequence (P32300 whole entry): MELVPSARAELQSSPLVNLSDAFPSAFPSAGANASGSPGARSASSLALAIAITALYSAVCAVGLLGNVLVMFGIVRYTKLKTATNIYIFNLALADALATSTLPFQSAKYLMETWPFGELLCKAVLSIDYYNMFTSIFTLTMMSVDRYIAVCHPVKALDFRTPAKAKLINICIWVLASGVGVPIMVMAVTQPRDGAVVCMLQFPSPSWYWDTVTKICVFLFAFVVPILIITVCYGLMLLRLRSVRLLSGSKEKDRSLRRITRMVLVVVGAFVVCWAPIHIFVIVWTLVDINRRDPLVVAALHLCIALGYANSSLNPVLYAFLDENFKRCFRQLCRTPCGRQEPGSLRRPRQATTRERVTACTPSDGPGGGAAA
Series [27] concerns Mus musculus. Nature of the series: Antinociceptive activity in po dosed mouse. It is filed as functional.
Series [28] in a line: Toxicity in po dosed mouse assessed as antinociceptive activity tolerance by tail flick assay. The conditions noted are these: in vivo. Format: organism-based.
For series [29], the system named is Mus musculus. Briefly: Antinociceptive activity in sc dosed visceral pain mouse model. It is filed as functional.
The subject of series [30] is Mus musculus. Briefly: Antinociceptive activity in sc dosed mouse by tail flick assay. It is filed as functional.
Series [31] has as its target T3, Mu-type opioid receptor. Briefly: Agonist activity at MOP (unknown origin). It is filed as functional.
Series [32] is described as follows: Displacement of [3H]naltrindole from guinea pig brain membrane DOP incubated for 3 hr by scintillation counter analysis. It is filed as cell membranes, Cavia porcellus. For orientation: In a radioligand displacement assay an active substance lowers the binding of a labelled ligand.
A short description of series [33]: Toxicity in sc dosed mouse assessed as antinociceptive activity tolerance by tail flick assay. The conditions noted are these: in vivo. It is filed as organism-based.
The target in series [34] is T2, Mu-type opioid receptor. Briefly: Displacement of [3H]DAMGO from guinea pig brain membrane MOP incubated for 1 hr by scintillation counter analysis. It is filed as cell membranes.
For series [35], the system named is Mus musculus. Briefly: Antinociceptive activity in ip dosed C57BL/6J mouse assessed as tail withdrawal latency from warm water. Format: functional.
The test system of series [36] is Mus musculus. Briefly: Antinociceptive activity in ip dosed mouse assessed as tail flick latency. It is filed as functional.
Series [37] can be described thus: Toxicity in ip dosed mouse assessed as antinociceptive tolerance. Format: organism-based. The conditions noted are these: in vivo.

Square brackets hold non-standard residues; d marks the D form. Peptide text beside a SMILES is read from it. βAla = NCCC(=O)O

T1 sequence (P42866 whole entry): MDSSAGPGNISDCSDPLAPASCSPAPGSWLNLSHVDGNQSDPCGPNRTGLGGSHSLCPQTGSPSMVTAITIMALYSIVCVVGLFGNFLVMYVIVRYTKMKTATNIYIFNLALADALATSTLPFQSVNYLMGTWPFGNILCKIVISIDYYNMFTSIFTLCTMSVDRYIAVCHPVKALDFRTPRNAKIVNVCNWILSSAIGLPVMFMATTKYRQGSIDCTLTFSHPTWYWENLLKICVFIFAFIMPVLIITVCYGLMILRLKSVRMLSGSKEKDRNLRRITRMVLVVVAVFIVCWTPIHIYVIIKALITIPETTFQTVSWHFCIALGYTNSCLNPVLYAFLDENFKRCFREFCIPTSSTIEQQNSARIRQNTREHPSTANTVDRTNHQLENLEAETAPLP
T3 sequence (P35372 whole entry): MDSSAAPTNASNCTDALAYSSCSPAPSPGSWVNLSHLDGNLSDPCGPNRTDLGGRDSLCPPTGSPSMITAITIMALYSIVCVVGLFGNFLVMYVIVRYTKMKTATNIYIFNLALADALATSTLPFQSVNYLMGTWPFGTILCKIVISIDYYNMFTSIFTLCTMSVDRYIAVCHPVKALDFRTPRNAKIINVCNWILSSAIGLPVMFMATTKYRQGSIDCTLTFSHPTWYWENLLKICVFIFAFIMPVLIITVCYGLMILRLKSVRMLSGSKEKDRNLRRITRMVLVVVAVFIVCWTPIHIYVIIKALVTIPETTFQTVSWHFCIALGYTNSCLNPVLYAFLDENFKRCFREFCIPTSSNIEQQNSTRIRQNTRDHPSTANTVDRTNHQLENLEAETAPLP
Kappa-type opioid receptor (Homo sapiens, UniProt P41145), sequence (P41145 whole entry): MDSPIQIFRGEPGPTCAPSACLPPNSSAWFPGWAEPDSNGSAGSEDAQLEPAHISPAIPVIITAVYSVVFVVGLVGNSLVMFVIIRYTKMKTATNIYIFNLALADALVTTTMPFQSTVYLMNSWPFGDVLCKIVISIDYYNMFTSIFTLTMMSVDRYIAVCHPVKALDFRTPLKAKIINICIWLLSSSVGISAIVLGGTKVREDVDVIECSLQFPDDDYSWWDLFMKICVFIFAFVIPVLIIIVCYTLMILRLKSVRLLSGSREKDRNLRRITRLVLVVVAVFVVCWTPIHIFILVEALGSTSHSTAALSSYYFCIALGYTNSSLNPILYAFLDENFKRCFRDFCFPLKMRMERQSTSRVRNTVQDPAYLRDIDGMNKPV

Regarding `COC(=O)[C@@H]1C[C@H](OC(C)=O)C(=O)[C@H]2[C@@]1(C)CC[C@H]1C(=O)O[C@H](c3ccoc3)C[C@]21C` [SALVINORIN A], the ED50 with Mus musculus [1] amounted to 1.5 µg; with Mus musculus [2] it was 2.1 mg/kg.
`C[C@@H](NC(=O)[C@@H](N)Cc1ccc(O)cc1)C(=O)N[C@@H](Cc1ccccc1)C(=O)NCC(=O)N[C@@H](Cc1ccc(O)cc1)C(=O)N1CCC[C@H]1C(=O)N[C@@H](CO)C(N)=O` [DERMORPHIN]: the IC50 (as a rule, the concentration needed to halve the response being measured) on Mu-type opioid receptor [3] was determined as 16.5 nM; at Mu-type opioid receptor [4] it was 1.1 nM; at Mu-type opioid receptor [6], 0.76 nM. Further, the ED50 with Mus musculus [5] was determined as 0.46 µmol/kg; in the series listed under Mus musculus [7], 4.6 µmol/kg; in the series on Rattus norvegicus [8], 23 pmol; in the series filed under Rattus norvegicus [9], 1.5 µmol/kg; in the series with Mus musculus [11] it was 1 µmol/kg; in the series with Mus musculus [12] it was 6.7 pmol. In addition, the Activity in series [10] turned out to be 63%.
Compound `NCCCC[C@H](NC(=O)[C@H](Cc1ccccc1)NC(=O)[C@@H](CCCN=C(N)N)NC(=O)[C@@H](N)Cc1ccc(O)cc1)C(N)=O` yielded an IC50 against Mu-type opioid receptor [3] of 781 nM. The values for the ED50 in the series with Rattus norvegicus [13], in the series on Mus musculus [15] and in the series on Mus musculus [16] were 2.37 pmol, 0.06 pmol and 4.2 pmol, respectively. The Ki (commonly the dissociation constant of the complex between target and ligand, obtained from inhibition or displacement) at Mu-type opioid receptor [14] was found to be 0.14 nM; in [17], 19200 nM.
Turning to `C=C[C@H]1CN2CCc3c([nH]c4cccc(OC)c34)[C@@H]2C[C@@H]1/C(=C\OC)C(=O)OC`, the half-inhibitory concentration (IC50) against Mu-type opioid receptor [18] is 2200 nM; in series [19], above 10000 nM; in series [20] it was 10000 nM. The inhibitory constant (Ki) in series [17] is above 10000 nM.
For `CC[C@@H]1CN2CC[C@]3(O)c4c(cccc4OC)NC3[C@@H]2C[C@@H]1/C(=C\OC)C(=O)OC` (stereo partly drawn), the IC50 in series [21] came out at 7900 nM; in series [19], 2520 nM; in series [26] it was 10000 nM; in series [20], 691 nM. In addition, the ED50 amounted to 2.2 mg/kg in the series on Mus musculus [22]; 0.93 mg/kg with Mus musculus [23]; 4.4 mg/kg in the series on Mus musculus [25]; 1.1 mg/kg in the series on Mus musculus [27]; 7.5 mg/kg in [28]; 0.15 mg/kg with Mus musculus [29]. The ED50 with Mus musculus [30] was 0.8 mg/kg; in series [33], 1.19 mg/kg. The Ki in [24] came out at 85 nM; on Mu-type opioid receptor [14], 47 nM; in series [32], 96 nM; in series [17], 219 nM; at Mu-type opioid receptor [34] it was 11 nM. For the same compound, a half-maximal effect at Mu-type opioid receptor [31] (EC50) was put at 34.5 nM.
Take `O=C1NCCC(=O)N2CCC[C@@H]2C(=O)N[C@@H](Cc2ccccc2)C(=O)N[C@H]1Cc1c[nH]c2ccccc12` (cyclo(FW[βAla][dP])): in the series with Mus musculus [35], the ED50 is 0.64 mg/kg.
As to `COC(=O)[C@@H]1C=C(OC(=O)c2ccccc2)C(=O)[C@H]2[C@@]1(C)CC[C@H]1C(=O)O[C@H](c3ccoc3)C[C@]21C`, the results for the ED50 (with Mus musculus [36]; in [37]) were 5 mg/kg and 7.9 mg/kg, respectively.
